Experimental data taken from patent publication US9522888B2, “Substituted bicyclic compounds” (BRISTOL-MYERS SQUIBB COMPANY, priority 2014, dated 2016).

What was measured:
[1] = target: S1P3 (membranes prepared from EDG3-Gal5-bla HEK293T cells) (Homo sapiens (Human), UniProt Q99500); experiment: Receptor [35S] GTPγS binding assay (S1P3 GTPγS); assay type: biochemical; conditions: phosphate examples; read-out: S1P3 GTPγS
Outline: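 Membranes (3 μg protein/well) from S1P1/CHO cells or EDG3-Gal5-bla HEK293T cells (S1P3) were incubated 45 min at room temperature with 0.2 nM final [35S]GTPγS in HEPES pH 7.5 buffer with 10 μM GDP, MgCl2 and saponin. Bound label counted after filtration; EC50 from 11-point, 3-fold dilutions.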

[2] = target: S1P1 (membranes prepared from S1P1/CHO cells) (Homo sapiens (Human), UniProt P21453); experiment: Receptor [35S] GTPγS binding assay (S1P1 GTPγS); assay type: biochemical; conditions: phosphate examples; read-out: S1P1 GTPγS
Chain of S1P1 (membranes prepared from S1P1/CHO cells) (P21453 whole entry): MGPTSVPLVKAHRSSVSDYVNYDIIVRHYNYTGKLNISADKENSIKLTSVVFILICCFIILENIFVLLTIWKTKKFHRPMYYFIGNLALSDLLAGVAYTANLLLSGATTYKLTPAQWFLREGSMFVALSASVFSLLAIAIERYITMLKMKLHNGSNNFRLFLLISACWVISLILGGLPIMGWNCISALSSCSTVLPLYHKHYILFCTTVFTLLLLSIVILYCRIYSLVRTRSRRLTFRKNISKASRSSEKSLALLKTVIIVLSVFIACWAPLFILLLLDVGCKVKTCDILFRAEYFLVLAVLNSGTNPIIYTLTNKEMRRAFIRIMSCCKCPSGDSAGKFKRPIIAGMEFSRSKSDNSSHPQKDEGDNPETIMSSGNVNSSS
Outline: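 Agonist-stimulated [35S]GTPγS binding (0.2 nM final) to S1P1/CHO membranes, 3 μg protein/well, measured after 45 min at room temperature. Buffer contained 10 μM GDP, saponin and fatty-acid-free BSA at pH 7.5. Compounds tested as 11-point 3-fold series; bound label captured on filters, scintillation-counted, EC50 reported.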

[3] = target: hS1P1/CHO cells (Homo sapiens (Human), UniProt P21453); experiment: hS1P1 ERK phosphorylation (S1P1 pERK); assay type: cell-based; conditions: phosphate examples
Chain of hS1P1/CHO cells (P21453 whole entry): as above
Outline: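 Agonism read as ERK phosphorylation (SureFire pERK) in hS1P1/CHO lysates, normalised to the maximal effect of 10 μM S1P. Cells were held 2 h in serum-free medium, then treated with compound for 7 min at 37° C. in HBSS/20 mM HEPES.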

[4] = target: human S1P1 (Homo sapiens (Human), UniProt P21453); experiment: S1P1 binding assay (33P-S1P radioligand competition, CHO cell membranes); conditions: phosphate examples; read-out: S1P1 Binding
Chain of human S1P1 (P21453 whole entry): as above
Outline: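 Radioligand is 33P-S1P, competing for membranes from human S1P1-expressing CHO cells. Membranes resuspended in 50 mM HEPES pH 7.5, 100 mM NaCl, 1 mM MgCl2, 2 mM EDTA.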

Chain of S1P3 (membranes prepared from EDG3-Gal5-bla HEK293T cells) (Q99500 whole entry): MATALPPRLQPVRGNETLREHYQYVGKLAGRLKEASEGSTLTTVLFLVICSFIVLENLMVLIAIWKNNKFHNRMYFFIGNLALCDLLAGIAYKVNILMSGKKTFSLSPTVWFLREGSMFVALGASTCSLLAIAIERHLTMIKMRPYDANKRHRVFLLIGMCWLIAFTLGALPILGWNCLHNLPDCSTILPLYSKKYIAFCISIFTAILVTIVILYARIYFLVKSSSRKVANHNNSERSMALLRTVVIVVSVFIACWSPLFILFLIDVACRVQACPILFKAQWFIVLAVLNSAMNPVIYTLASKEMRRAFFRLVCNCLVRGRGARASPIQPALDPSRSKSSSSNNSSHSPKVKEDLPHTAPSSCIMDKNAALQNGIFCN

Row | EC50 [1] [nM] | EC50 [2] [nM] | EC50 [3] [nM] | IC50 [4] [nM] | SMILES
1 | > 625 | 100 to 1000 | < 10 | < 10 | COCC[C@@H]1CCc2cc([C@H]3CC[C@](N)(COP(=O)(O)O)C3)ccc2C1 [compound 540]
2 | > 625 | 10 to 100 | < 10 | < 10 | CCOCC[C@@H]1CCc2cc([C@H]3CC[C@](N)(COP(=O)(O)O)C3)ccc2C1 [compound 541]
3 | > 625 | 100 to 1000 | < 10 | 10 to 100 | COc1cccc(OCC[C@@H]2CCc3cc([C@H]4CC[C@](N)(COP(=O)(O)O)C4)ccc3C2)c1 [compound 544]
4 | > 625 | 10 to 100 | < 10 | 10 to 100 | COc1cccc(OCC[C@H]2CCc3cc([C@H]4CC[C@](N)(COP(=O)(O)O)C4)ccc3C2)c1 [compound 545]
5 | > 625 | 100 to 1000 | 10 to 100 | 100 to 1000 | COc1ccc(C[C@@H]2CCc3cc([C@H]4CC[C@](N)(COP(=O)(O)O)C4)ccc3C2)c(C)c1 [compound 546]
6 | > 625 | 10 to 100 | 10 to 100 | < 10 | CCOc1ccc(C[C@H]2CCc3cc([C@H]4CC[C@](N)(COP(=O)(O)O)C4)ccc3C2)cc1 [compound 547]
7 | > 625 | 10 to 100 | < 10 | 10 to 100 | CCOc1cccc(C[C@H]2CCc3cc([C@H]4CC[C@](N)(COP(=O)(O)O)C4)ccc3C2)c1 [compound 548]
8 | > 625 | 100 to 1000 | < 10 | 100 to 1000 | CCOc1ccc(C[C@@H]2CCc3cc([C@H]4CC[C@](N)(COP(=O)(O)O)C4)ccc3C2)cc1 [compound 549]
9 | > 625 | 10 to 100 | < 10 | 10 to 100 | COCc1ccc(C[C@@H]2CCc3cc([C@H]4CC[C@](N)(COP(=O)(O)O)C4)ccc3C2)cc1 [compound 550]
10 | > 625 | 10 to 100 | 10 to 100 | 10 to 100 | CCOc1cccc(C[C@@H]2CCc3cc([C@H]4CC[C@](N)(COP(=O)(O)O)C4)ccc3C2)c1 [compound 551]
11 | > 625 | 10 to 100 | 10 to 100 | < 10 | COCc1cccc(C[C@@H]2CCc3cc([C@H]4CC[C@](N)(COP(=O)(O)O)C4)ccc3C2)c1 [compound 552]
12 | > 625 | 100 to 1000 | < 10 | 100 to 1000 | COc1ccc(C[C@@H]2CCc3cc([C@H]4CC[C@](N)(COP(=O)(O)O)C4)ccc3C2)cc1OC [compound 553]
13 | > 625 | 10 to 100 | 10 to 100 | < 10 | C=CCCCC[C@@H]1CCc2cc([C@H]3CC[C@](N)(COP(=O)(O)O)C3)ccc2C1 [compound 555]
14 | > 625 | < 10 | < 10 | 1000 to 10000 | CC(C)=CCCC[C@@H]1CCc2cc([C@H]3CC[C@](N)(COP(=O)(O)O)C3)ccc2C1 [compound 556]
15 | > 625 | 10 to 100 | 10 to 100 | 10 to 100 | N[C@]1(COP(=O)(O)O)CC[C@H](c2ccc3c(c2)CC[C@@H](CCCC2CCOCC2)C3)C1 [compound 557]
16 | > 625 | < 10 | < 10 | < 10 | N[C@]1(COP(=O)(O)O)CC[C@H](c2ccc3c(c2)CC[C@@H](CCC2CCOCC2)C3)C1 [compound 558]
17 | > 625 | 100 to 1000 | 10 to 100 | 100 to 1000 | CC(C)Oc1ccc(C[C@@H]2CCc3cc([C@H]4CC[C@](N)(COP(=O)(O)O)C4)ccc3C2)cc1 [compound 559]
18 | > 625 | < 10 | < 10 | 10 to 100 | CC(C)Oc1cccc(C[C@@H]2CCc3cc([C@H]4CC[C@](N)(COP(=O)(O)O)C4)ccc3C2)c1 [compound 560]
19 | > 625 | 100 to 1000 | 10 to 100 | 100 to 1000 | CN(C)CCCCC[C@@H]1CCc2cc([C@H]3CC[C@](N)(COP(=O)(O)O)C3)ccc2C1 [compound 561]
20 | > 625 | 100 to 1000 | 10 to 100 | 100 to 1000 | CN(C)C(=O)Cc1ccc(C[C@@H]2CCc3cc([C@H]4CC[C@](N)(COP(=O)(O)O)C4)ccc3C2)cc1 [compound 562]
21 | > 625 | 100 to 1000 | 100 to 1000 | 100 to 1000 | COc1ccccc1CCC[C@@H]1CCc2cc([C@H]3CC[C@](N)(COP(=O)(O)O)C3)ccc2C1 [compound 563]

Row | EC50 [1] [nM] | EC50 [2] [nM] | EC50 [3] [nM] | IC50 [4] [nM] | SMILES
22 | > 625 | 10 to 100 | 10 to 100 | 10 to 100 | COc1cccc(CCC[C@@H]2CCc3cc([C@H]4CC[C@](N)(COP(=O)(O)O)C4)ccc3C2)c1 [compound 564]
23 | > 625 | < 10 | 10 to 100 | < 10 | COc1cccc(C[C@H]2CCc3cc([C@H]4CC[C@](N)(COP(=O)(O)O)C4)ccc3C2)c1 [compound 567]
24 | > 625 | < 10 | < 10 | 10 to 100 | COc1ccc(C[C@H]2CCc3cc([C@H]4CC[C@](N)(COP(=O)(O)O)C4)ccc3C2)cc1 [compound 568]
25 | > 625 | 10 to 100 | < 10 | < 10 | N[C@]1(COP(=O)(O)O)CC[C@H](c2ccc3c(c2)CC[C@H](c2ccccc2)C3)C1 [compound 569]
26 | > 625 | 10 to 100 | 10 to 100 | 10 to 100 | N[C@]1(COP(=O)(O)O)CC[C@H](c2ccc3c(c2)CC[C@@H](Cc2ccccc2)C3)C1 [compound 571]
27 | > 625 | < 10 | 10 to 100 | < 10 | N[C@]1(COP(=O)(O)O)CC[C@H](c2ccc3c(c2)CC[C@H](Cc2ccccc2)C3)C1 [compound 572]
28 | > 625 | 10 to 100 | 10 to 100 | 10 to 100 | N[C@]1(COP(=O)(O)O)CC[C@H](c2ccc3c(c2)CC[C@@H](CCc2ccccc2)C3)C1 [compound 573]
29 | > 625 | 10 to 100 | < 10 | 10 to 100 | CCCCCC1CCc2cc([C@H]3CC[C@](N)(COP(=O)(O)O)C3)ccc2C1 (some centres unmarked) [compound 575]
30 | > 625 | 100 to 1000 | 10 to 100 | 10 to 100 | CCCCCC1CCc2cc([C@H]3CC[C@](N)(COP(=O)(O)O)C3)ccc2C1 (some centres unmarked) [compound 576]
31 | > 625 | < 10 | < 10 | < 10 | CCCCC[C@@H]1CCc2cc([C@@H]3CC[C@@](N)(COP(=O)(O)O)C3)ccc2C1 [compound 577]
32 | > 625 | 10 to 100 | < 10 | < 10 | CCCCC[C@H]1CCc2cc([C@@H]3CC[C@@](N)(COP(=O)(O)O)C3)ccc2C1 [compound 578]
33 | > 625 | 10 to 100 | < 10 | < 10 | C#CCCOCCO[C@H]1CCc2cc([C@@H]3CC[C@@](N)(COP(=O)(O)O)C3)ccc2C1 [compound 586]
34 | > 625 | 10 to 100 | < 10 | < 10 | CC(C)CCOCCO[C@H]1CCc2cc([C@H]3CC[C@](N)(COP(=O)(O)O)C3)ccc2C1 [compound 587]
35 | > 625 | 10 to 100 | < 10 | 10 to 100 | CCCCOCCO[C@H]1CCc2cc([C@@H]3CC[C@@](N)(COP(=O)(O)O)C3)ccc2C1 [compound 591]
36 | > 625 | 10 to 100 | < 10 | < 10 | CCCCOCCO[C@@H]1CCc2cc([C@@H]3CC[C@@](N)(COP(=O)(O)O)C3)ccc2C1 [compound 592]
37 | > 625 | 10 to 100 | 100 to 1000 | 10 to 100 | COc1ccc(CC[C@H]2CCc3cc([C@@H]4CC[C@@](N)(COP(=O)(O)O)C4)ccc3C2)cc1 [compound 594]
38 | > 625 | 10 to 100 | < 10 | < 10 | COCCC[C@H]1CCc2cc([C@@H]3CC[C@@](N)(COP(=O)(O)O)C3)ccc2C1 [compound 595]
39 | > 625 | 10 to 100 | < 10 | < 10 | COCCCC[C@H]1CCc2cc([C@@H]3CC[C@@](N)(COP(=O)(O)O)C3)ccc2C1 [compound 596]
40 | > 625 | 10 to 100 | < 10 | 10 to 100 | COCCCCC[C@H]1CCc2cc([C@@H]3CC[C@@](N)(COP(=O)(O)O)C3)ccc2C1 [compound 598]
41 | > 625 | < 10 | < 10 | 10 to 100 | CC(C)OCCC[C@H]1CCc2cc([C@@H]3CC[C@@](N)(COP(=O)(O)O)C3)ccc2C1 [compound 600]
